Measurements from patent US20230340440A1, “GENETIC MANIPULATION METHOD IN BACTERIA” (University of Washington, priority 2022, published 2023).
In brackets after ≈: the same amount, converted by molar mass. Where two headings read alike, the source gives them in different places.

Columns and labels:
LacI-Ptrc promoter = test: inducible LacI-Ptrc-mediated activation of an mRFP reporter gene; assay type: cell-based, P. putida KT2440; conditions: 1 mM IPTG compared to the no inducer condition
Procedure: (§1) FIGS. 17A-17C show inducible promoters in P. putida (FIG. 17A). Inducible LacI-Ptrc-mediated activation of an mRFP reporter gene in P. putida KT2440 with 0-1 mM IPTG. A 13-fold activation at 1 mM IPTG was observed compared to the no inducer condition. Inducible XylS-Pm-mediated activation of an mRFP reporter gene in P. putida KT2440 with 0-5 mM m-toluic acid (FIG. 17B). […] The XylS-Pm promoter provides a better dynamic range compared to LacI-Ptrc promoter mainly due to its relatively low basal expression. mRFP reporter gene fluorescence distributions measured by flow cytometry (FIG. 17C). […] Values in FIG. 17A represent the mean ± standard deviation calculated from n = 6 independent biological replicates. Values in FIG. 17B represent the mean ± standard deviation calculated from n = 3 independent biological replicates. […]
(§2) Fluorescence measurements of reporter gene expression were carried out either by flow cytometry or plate reader. […] For flow cytometry, overnight cultures were diluted 1:50 in Dulbecco’s phosphate-buffered saline (PBS) and analyzed on a MACSQuant VYB flow cytometer with the MACSQuantify 2.8 software (Miltenyi Biotec) using the methods and instruments settings as described (Dong et al., 2018. Synthetic CRISPR-Cas gene activators for transcriptional reprogramming in bacteria. Nat Commun 9, 2489). […]

E. coli = test: growth experiment with extracellular p-ACA, E. coli; assay type: cell-based
From the text: (§3) FIGS. 31A-31F show CRISPRa efficiency can be tuned by expression level of scRNA. The optimized expression level of scRNA from pBBR1-GmR is under J23110 promoter. Higher level (BBa_J23119) or lower level (BBa_J23106) led to decrease in CRISPRa effects (FIG. 31A). CRISPRa efficiency can be tuned by scRNA composition (FIG. 31B). Truncating the spacer sequence from 20 nucleotides to 8 nucleotides led to titratable expression level by CRISPRa. Desired product p-ACA is toxic to E. coli but not P. putida (FIG. 31C). In this kinetic growth experiment, extracellular p-ACA is supplied in the media at the indicated concentrations, and cultures are grown in a plate reader with periodic density measurements. E. coli growth is severely limited above 20 mM p-ACA (dash-dotted line). Early timepoints are sometimes obscured by p-ACA precipitate, which eventually resolubilizes. […] Error bars represent standard deviation of n=3 biological replicates. […] An example of CRISPRa with 3 orthogonal scRNAs activating 3 fluorescent reporters (FIG. 31E). Multiple scRNAs construction strategy was based on Golden-Gate Assembly (FIG. 31F).
(§4) With further chemical modification or bioconversions, pACA can be converted into p-aminostyrene (pAS) which is a precursor of derivatized polystyrene, containing a functional group for further modification or functionalization with other polymers. […] Assuming that high concentration of pACA could be deleterious to the host, a growth experiment using E. coli, the standard chassis, and P. putida, known for resistance to aromatic compounds was performed. It is obvious that E. coli cannot tolerate high concentrations of pACA while P. putida growth is less affected. Thus, the solution to microbial production of pACA might be achievable with P. putida as an alternative chassis.
As originally implemented in E. coli, the p-AF production pathway consisted of the P. fluorescens papABC operon78 under tet-inducible control, along with a feedback-resistant E. coli aroG74 and aroL in their own operon, which is also tet-inducible. […] Toxic amounts of extracellular p-ACA, the result of a spike into the media, are shown in FIG. 31B, with 50% reduction of E. coli growth occurring above 10 mM extracellular.

XylS-Pm-dCas9 = test: tunable CRISPRa/CRISPRi in inducible-dCas9 strain (PPC08), J3-BBa_J23110-mRFP reporter; assay type: cell-based, P. putida
From the text: FIGS. 5A-5B show CRISPRa with endogenous promoters and inducible CRISPRa/CRISPRi in P. putida. The putative promoter sequences between two open reading frames (ORFs) with 60 bp flanking sequences were incorporated into the mRFP reporter (FIG. 5A). scRNAs were introduced for all potentially activable target sites corresponding to the effective distances as tested in FIGS. 2B & 2C. Precise distances from the target site to the TSS are listed in Table 5. hAAVS1 was used as an off-target scRNA for all ten promoters. […] The inducible-dCas9 strain yielded 3-fold activation with CRISPRa or 7-fold repression with CRISPRi at 1 mM m-toluic acid compared to the no-inducer control. Fold-changes compared to the off-target control were 4-fold and 5-fold, respectively. […] Values represent the mean ± standard deviation calculated from n = 3 independent biological replicates.
(§5) Fluorescence measurements of reporter gene expression were carried out either by flow cytometry or plate reader. Single colonies from LB plates were inoculated in 500 µL of EZ-RDM (Teknova) supplemented with the appropriate antibiotics and grown in 96-deep-well plates at 30° C. with shaking overnight 225 rpm. For small-molecule induction, overnight cultures were diluted 100-fold into a new culture with appropriate antibiotics and inducers, then shaken overnight at 30° C., 225 rpm. For flow cytometry, overnight cultures were diluted 1:50 in Dulbecco’s phosphate-buffered saline (PBS) and analyzed on a MACSQuant VYB flow cytometer with the MACSQuantify 2.8 software (Miltenyi Biotec) using the methods and instruments settings as described (Dong et al., 2018. Synthetic CRISPR-Cas gene activators for transcriptional reprogramming in bacteria. Nat Commun 9, 2489). For plate reader measurements, 150 µL of overnight culture were transferred into a flat, clear-bottomed black 96-well plate. OD600 and fluorescence values were measured in a Biotek Synergy HTX plate reader and analyzed using the BioTek Gen5 2.07.17 software. For mRFP1 detection, the excitation wavelength was 540 nm and emission wavelength was 600 nm. For sfGFP detection, the excitation wavelength was 485 nm and the emission wavelength was 528 nm. Data were plotted using Prism (GraphPad).
A reporter with either an activating scRNA or a repressing sgRNA was delivered to the inducible dCas9 strain (PPC08) and 3-fold activation with CRISPRa or 7-fold repression with CRISPRi at 1 mM m-toluic acid (FIG. 5B) was observed. […] By targeting CRISPRi and CRISPRa to the same locus, we may be able to obtain lower basal expression and higher induced expression. […]

[1] = tested on: XylS-Pm promoters regulating dCas9 and/or MCP-SoxS; test: inducible CRISPRa by XylS-Pm on CRISPRa machinery, J3-BBa_J23117-mRFP reporter (pPPC020); assay type: cell-based, P. putida; conditions: for fold-activation in the presence of inducer: J306 scRNA
From the text: FIGS. 18A-18B show inducible CRISPRa by XylS-Pm on CRISPRa machinery. Inducible dCas9/MCP-SoxS constructs were integrated into the P. putida genome with the mini-Tn7 method (FIG. 18A). XylS-Pm promoters were introduced in place of the Sp.pCas9 promoter regulating dCas9 and/or the BBa_J23107 promoter for MCP-SoxS. Strains were transformed with a vector (pPPC020) carrying either an off-target scRNA or a J306 scRNA (FIG. 18B). The fold-activation in the presence of m-toluic acid as an inducer are 9-fold, 5-fold, and 10-fold from PPC08, PPC09, and PPC10, respectively. […] If only MCP-SoxS is under control of the inducible promoter, leaky activation is detectable. In a strain with constitutively expressed CRISPRa machinery that should not be responsive to inducer, high inducer concentrations (5 mM) also led to a modest increase in mRFP expression (1.3-fold). Values represent the mean ± standard deviation calculated from n = 3 independent biological replicates.
as §5, with “For sfGFP detection, the excitation wavelength was 485 nm and the emission wavelength was 528 nm. Data were plotted using Prism (GraphPad).” left out
To tune expression levels with CRISPRa and CRISPRi, the CRISPR system components were placed under the control of a small-molecule inducible promoter. dCas9 and/or MCP-SoxS were expressed using XylS-Pm, an inducible promoter system from the P. putida mt-2 toluene degradation pathway (Wirth et al., 2019. Accelerated genome engineering of Pseudomonas putida by I-SceI-mediated recombination and CRISPR-Cas9 counterselection. Microb Biotechnol). […] In all three inducible strains assessed, tunable gene activation as a function of inducer concentration was observed (FIG. 18B). […]

XylS-Pm promoter = test: inducible XylS-Pm-mediated activation of an mRFP reporter gene; assay type: cell-based, P. putida KT2440; conditions: 1 mM m-toluic acid compared to the no inducer condition
Procedure: as §1, §2

P. putida = test: growth experiment with extracellular p-ACA, P. putida; assay type: cell-based
From the text: as §3, §4
In contrast to E. coli, p-ACA has little effect on P. putida growth, even up to 20 mM extracellular (close to its solubility limit). Therefore, the inventors chose to port the existing pAF pathway into P. putida to extend it to more valuable downstream aromatic products.

P. putida cultures = test: consumption of extracellular p-ACA by growing P. putida cultures; conditions: stability of accumulation in culture supernatant
p-ACA solubility limit = assay type: physicochemical; conditions: aqueous buffer; extracellular, culture media
[2] = 1 mM m-toluic acid compared to the no-inducer control
[3] = 1 mM m-toluic acid compared to the off-target control

## CC(C)S[C@@H]1O[C@H](CO)[C@H](O)[C@H](O)[C@H]1O [IPTG]
LacI-Ptrc promoter
  activation of mRFP reporter (LacI-Ptrc): 13 fold

## Nc1ccc(C[C@H](N)C(=O)O)cc1 [p-AF, p-aminophenylalanine]
E. coli
  toxic effects in E. coli host: can safely accumulate

## Cc1cccc(C(=O)O)c1 [m-toluic acid]
XylS-Pm-dCas9; [2]
  activation with CRISPRa: 3 fold
  repression with CRISPRi: 7 fold
XylS-Pm-dCas9; [3]
  fold-change with CRISPRa: 4 fold
  fold-change with CRISPRi: 5 fold
[1]; 5 mM inducer, strain with constitutively expressed CRISPRa machinery
  increase in mRFP expression: 1.3 fold
[1]; strain PPC08 (inducible dCas9)
  fold-activation in the presence of inducer: 9 fold
[1]; strain PPC09 (inducible MCP-SoxS)
  fold-activation in the presence of inducer: 5 fold
[1]; strain PPC10 (dCas9 and MCP-SoxS inducible)
  fold-activation in the presence of inducer: 10 fold
XylS-Pm promoter
  activation of mRFP reporter (XylS-Pm): > 300 fold

## Nc1ccc(C=CC(=O)O)cc1 [p-ACA, p-aminocinnamic acid]
P. putida; follow-up experiments
  toxicity in P. putida strain with the putative catabolic pathway knocked out: lack of p-ACA toxicity
P. putida; kinetic growth experiment, extracellular p-ACA in the media (FIG. 31C)
  P. putida growth: relatively unaffected
P. putida; up to 20 mM extracellular
  effect on P. putida growth: little effect
P. putida cultures
  consumption of extracellular p-ACA by growing P. putida cultures: lack of consumption
p-ACA solubility limit
  solubility: ~20 mM (≈ 3260 µg/mL)
E. coli; Escherichia coli, read-out: 50% reduction of E. coli growth
  IC50: > 10 mM
E. coli; kinetic growth experiment, extracellular p-ACA in the media, plate reader (FIG. 31C)
  E. coli growth severely limited above: above 20 mM
E. coli; production/accumulation in E. coli
  toxic effects in E. coli host: toxic effects
